In US20050009840A1 (SUGEN, INC., priority 2003, published 2005):
Where a name gives a salt, the structure may show the parent alone.

What follows are compounds tested against T1, Met kinase domain (GST fusion protein) (Homo sapiens, UniProt P08581) (assay: Met transphosphorylation assay (ELISA, poly(glu-tyr) substrate)). Details: read-out: Met IC50.
T1 construct: Purified GST fusion protein containing the Met kinase domain
Type: biochemical
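Also: Cell-free ELISA with plate-bound poly(Glu:Tyr 4:1) phosphorylated by GST-fused Met kinase domain plus ATP and Mn2+, phosphotyrosine detected by anti-phosphotyrosine antibody with HRP and ABTS read-out.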

T1 sequence (P08581 1078-1345 limits assumed): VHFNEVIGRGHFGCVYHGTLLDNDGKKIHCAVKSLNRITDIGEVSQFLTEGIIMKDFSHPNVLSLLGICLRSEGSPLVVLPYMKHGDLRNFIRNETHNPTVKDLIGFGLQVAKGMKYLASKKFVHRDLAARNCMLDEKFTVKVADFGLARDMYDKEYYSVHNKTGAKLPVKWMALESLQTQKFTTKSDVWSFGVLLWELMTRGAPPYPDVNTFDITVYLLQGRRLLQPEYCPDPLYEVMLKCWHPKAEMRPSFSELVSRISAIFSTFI

Row | IC50 [nM] | SMILES
1 | 330 | CC(Oc1nc(-c2cccc(C(=O)NCCN3CCCC3)c2)cnc1N)c1c(Cl)cccc1Cl (stereo not drawn) [II-170, 3-{5-Amino-6-[1-(2,6-dichloro-phenyl)-ethoxy]-pyrazin-2-yl}-N-(2-pyrrolidin-1-yl-ethyl)-benzamide]
2 | 360 | CC(Oc1nc(-c2cccc(C(=O)N3C[C@@H](C)N[C@@H](C)C3)c2)cnc1N)c1c(Cl)cccc1Cl (stereo partly drawn) [II-171, (3-{5-Amino-6-[1-(2,6-dichloro-phenyl)-ethoxy]-pyrazin-2-yl}-phenyl)-((3R,5S)-3,5-dimethyl-piperazin-1-yl)-methanone]
3 | 480 | CC(Oc1nc(-c2cccc(C(=O)NCCN3CCOCC3)c2)cnc1N)c1c(Cl)cccc1Cl (stereo not drawn) [II-172, 3-{5-Amino-6-[1-(2,6-dichloro-phenyl)-ethoxy]-pyrazin-2-yl}-N-(2-morpholin-4-yl-ethyl)-benzamide]
4 | 180 | CC(Oc1nc(-c2cccc(C(=O)N3CCC[C@H]3CN3CCCC3)c2)cnc1N)c1c(Cl)cccc1Cl (stereo partly drawn) [II-173, (3-{5-Amino-6-[1-(2,6-dichloro-phenyl)-ethoxy]-pyrazin-2-yl}-phenyl)-((S)-2-pyrrolidin-1-ylmethyl-pyrrolidin-1-yl)-methanone]
5 | 170 | CC(Oc1nc(-c2cccc(C(=O)N3CCC(N4CCCC4)CC3)c2)cnc1N)c1c(Cl)cccc1Cl (stereo not drawn) [II-174, (3-{5-Amino-6-[1-(2,6-dichloro-phenyl)-ethoxy]-pyrazin-2-yl}-phenyl)-(4-pyrrolidin-1-yl-piperidin-1-yl)-methanone]
6 | 280 | CC(=O)N1CCN(CCNC(=O)c2ccc(-c3cnc(N)c(OC(C)c4c(Cl)cccc4Cl)n3)cc2)CC1 (stereo not drawn) [II-175, N-[2-(4-Acetyl-piperazin-1-yl)-ethyl]-4-{5-amino-6-[1-(2,6-dichloro-phenyl)-ethoxy]-pyrazin-2-yl}-benzamide]
7 | 350 | CC(=O)N1CCN(CCNC(=O)c2cccc(-c3cnc(N)c(OC(C)c4c(Cl)cccc4Cl)n3)c2)CC1 (stereo not drawn) [II-176, N-[2-(4-Acetyl-piperazin-1-yl)-ethyl]-3-{5-amino-6-[1-(2,6-dichloro-phenyl)-ethoxy]-pyrazin-2-yl}-benzamide]
8 | 330 | CC(Oc1nc(-c2cccc(C(=O)N3CCC[C@@H]3CN3CCCC3)c2)cnc1N)c1c(Cl)cccc1Cl (stereo partly drawn) [II-177, (3-{5-Amino-6-[1-(2,6-dichloro-phenyl)-ethoxy]-pyrazin-2-yl}-phenyl)-((R)-2-pyrrolidin-1-ylmethyl-pyrrolidin-1-yl)-methanone]
9 | 340 | CC(Oc1nc(-c2cccc(C(=O)NCCCN3CCCC3)c2)cnc1N)c1c(Cl)cccc1Cl (stereo not drawn) [II-178, 3-{5-Amino-6-[1-(2,6-dichloro-phenyl)-ethoxy]-pyrazin-2-yl}-N-(3-pyrrolidin-1-yl-propyl)-benzamide]
10 | 110 | CC(Oc1nc(-c2cccc(C(=O)N3CC[C@H](N)C3)c2)cnc1N)c1c(Cl)cccc1Cl (stereo partly drawn) [II-179, (3-{5-Amino-6-[1-(2,6-dichloro-phenyl)-ethoxy]-pyrazin-2-yl}-phenyl)-((S)-3-amino-pyrroldin-1-yl)-methanone]
11 | 180 | CC(Oc1nc(-c2ccc(NC(=O)NCCN3CCOCC3)cc2)cnc1N)c1c(F)ccc(F)c1Cl (stereo not drawn) [II-182, 1-(4-{5-Amino-6-[1-(2-chloro-3,6-difluoro-phenyl)-ethoxy]-pyrazin-2-yl}-phenyl)-3-(2-morpholin-4-yl-ethyl)-urea]
12 | 210 | CC(Oc1nc(-c2ccc(NC(=O)N3CCC[C@@H]3CN3CCCC3)cc2)cnc1N)c1c(F)ccc(F)c1Cl (stereo partly drawn) [II-183, (R)-2-Pyrrolidin-1-ylmethyl-pyrrolidin-1-carboxylic acid (4-{5-amino-6-[1-(2-chloro-3,6-difluoro-phenyl)-ethoxy]-pyrazin-2-yl}-phenyl)-amide]
13 | 180 | CC(Oc1nc(-c2ccc(NC(=O)NCCN3CCCC3)cc2)cnc1N)c1c(F)ccc(F)c1Cl (stereo not drawn) [II-184, 1-(4-{5-Amino-6-[1-(2-chloro-3,6-difluoro-phenyl)-ethoxy]-pyrazin-2-yl}-phenyl)-3-(2-pyrrolidin-1-yl-ethyl)-urea]
14 | 100 | CC(Oc1nc(-c2ccc(NC(=O)N3CCN(C)CC3)cc2)cnc1N)c1c(F)ccc(F)c1Cl (stereo not drawn) [II-185, 4-Methyl-piperazin-1-carboxylic acid (4-{5-amino-6-[1-(2-chloro-3,6-difluoro-phenyl)-ethoxy]-pyrazin-2-yl}-phenyl)-amide]
15 | 210 | CC(Oc1nc(-c2ccc(NC(=O)NCCO)cc2)cnc1N)c1c(F)ccc(F)c1Cl (stereo not drawn) [II-186, 1-(4-{5-Amino-6-[1-(2-chloro-3,6-difluoro-phenyl)-ethoxy]-pyrazin-2-yl}-phenyl)-3-(2-hydroxy-ethyl)-urea]
16 | 82 | CC(Oc1nc(-c2ccc(NC(=O)N3CC[C@H](N)C3)cc2)cnc1N)c1c(F)ccc(F)c1Cl (stereo partly drawn) [II-187, (S)-3-Amino-pyrrolidine-1-carboxylic acid (4-{5-amino-6-[1-(2-chloro-3,6-difluoro-phenyl)-ethoxy]-pyrazin-2-yl}-phenyl)-amide]
17 | 54 | CC(Oc1nc(-c2ccc(NC(=O)NC3CCN(C)CC3)cc2)cnc1N)c1c(F)ccc(F)c1Cl (stereo not drawn) [II-188, 1-(4-{5-Amino-6-[1-(2-chloro-3,6-difluoro-phenyl)-ethoxy]-pyrazin-2-yl}-phenyl)-3-(1-methyl-piperidin-4-yl)-urea]
18 | 74 | CC(Oc1nc(-c2ccc(NC(=O)N3CCN(C)CC3)cc2)cnc1N)c1c(Cl)ccc(F)c1Cl (stereo not drawn) [II-189, 4-Methyl-piperazine-1-carboxylic acid (4-{5-amino-6-[1-(2,6-dichloro-3-fluoro-phenyl)-ethoxy]-pyrazin-2-yl}-phenyl)-amide]
19 | 280 | CC(Oc1nc(-c2ccc(NC(=O)NCCO)cc2)cnc1N)c1c(Cl)ccc(F)c1Cl (stereo not drawn) [II-190, 1-(4-{5-Amino-6-[1-(2,6-dichloro-3-fluoro-phenyl)-ethoxy]-pyrazin-2-yl}-phenyl)-3-(2-hydroxy-ethyl)-urea]
20 | 52 | CC(Oc1nc(-c2ccc(NC(=O)NC3CCN(C)CC3)cc2)cnc1N)c1c(Cl)ccc(F)c1Cl (stereo not drawn) [II-192, 1-(4-{5-Amino-6-[1-(2,6-dichloro-3-fluoro-phenyl)-ethoxy]-pyrazin-2-yl}-phenyl)-3-(1-methyl-piperidin-4-yl)-urea]
21 | 620 | CN1CCN(C(=O)c2ccc(-c3cnc(N)c(OCc4c(F)ccc(F)c4Cl)n3)s2)CC1 [II-194, {5-[5-Amino-6-(2-chloro-3,6-difluoro-benzyloxy)-pyrazin-2-yl]-thiophen-2-yl)(4-methyl-piperazin-1-yl)-methanone]
22 | 510 | Nc1ncc(-c2ccc(C(=O)N3CCC(N4CCCC4)CC3)s2)nc1OCc1c(F)ccc(F)c1Cl [II-195, {5-[5-Amino-6-(2-chloro-3,6-difluoro-benzyloxy)-pyrazin-2-yl]-thiophen-2-yl}-(4-pyrrolidin-1-yl-piperidin-1-yl)-methanone]
23 | 550 | C[C@@H]1CN(C(=O)c2ccc(-c3cnc(N)c(OCc4c(F)ccc(F)c4Cl)n3)s2)C[C@H](C)N1 [II-196, {5-[5-Amino-6-(2-chloro-3,6-difluoro-benzyloxy)-pyrazin-2-yl]-thiophen-2-yl}-((3R,5S)-3,5-dimethyl-piperazin-1-yl)-methanone]
24 | 800 | Nc1ncc(-c2ccc(C(=O)N3CCC[C@@H]3CN3CCCC3)s2)nc1OCc1c(F)ccc(F)c1Cl [II-197, {5-[5-Amino-6-(2-chloro-3,6-difluoro-benzyloxy)-pyrazin-2-yl]-thiophen-2-yl}-((R)-2-pyrrolidin-1-ylmethyl-pyrrolidin-1-yl)-methanone]
25 | 700 | Nc1ncc(-c2ccc(C(=O)NCCN3CCOCC3)s2)nc1OCc1c(F)ccc(F)c1Cl [II-198, 5-[5-Amino-6-(2-chloro-3,6-difluoro-benzyloxy)-pyrazin-2-yl]-thiophene-2-carboxylic acid (2-morpholin-4-yl-ethyl)-amide]

Row | SMILES | IC50 [nM]
26 | CC(Oc1nc(-c2cccc(C(=O)N3CC[C@@H](N)C3)c2)cnc1N)c1c(Cl)cccc1Cl (stereo partly drawn) [II-180, (3-{5-Amino-6-[1-(2,6-dichloro-phenyl)-ethoxy]-pyrazin-2-yl}-phenyl)-((R)-3-amino-pyrrolidin-1-yl)-methanone hydrochloride salt] | 180
27 | CC(Oc1nc(-c2cccc(C(=O)N3CCN(C)CC3)c2)cnc1N)c1c(Cl)cccc1Cl (stereo not drawn) [II-181, (3-{5-Amino-6-[1-(2,6-dichloro-phenyl)-ethoxy]-pyrazin-2-yl}-phenyl)-(4-methyl-piperazin-1-yl)-methanone] | 250
28 | CC(Oc1nc(-c2ccc(NC(=O)N3CC[C@H](N)C3)cc2)cnc1N)c1c(Cl)ccc(F)c1Cl (stereo partly drawn) [II-191, (S)-3-Amino-pyrrolidine-1-carboxylic acid (4-{5-amino-6-[1-(2,6-dichloro-3-fluoro-phenyl)-ethoxy]-pyrazin-2-yl}-phenyl)-amide] | 3000
29 | CC(Oc1nc(-c2ccc(C(=O)N3CCN(C)CC3)cn2)cnc1N)c1c(Cl)ccc(F)c1Cl (stereo not drawn) [II-199, 3-[1-(2,6-dichloro-3-fluoro-phenyl)ethoxy]-5-{5-[(4-methylpiperazin-1-yl)carbonyl]-pyridin-2-yl}pyrazin-2-amine trifluoroacetate] | 150
30 | CC(Oc1nc(-c2ccncc2)cnc1N)c1c(Cl)ccc(F)c1Cl (stereo not drawn) [II-200, 3-[1-(2,6-Dichloro-3-fluoro-phenyl)-ethoxy]-5-pyridin-4-yl-pyrazin-2-ylamine] | 45
31 | CC(Oc1nc(-c2ccc[nH]2)cnc1N)c1c(Cl)ccc(F)c1Cl (stereo not drawn) [II-201, 3-[1-(2,6-Dichloro-3-fluoro-phenyl)-ethoxy]-5-(1H-pyrrol-2-yl)-pyrazin-2-ylamine] | 220
32 | CC(Oc1nc(-c2ccc(C(=O)N3CCN(C)CC3)cn2)cnc1N)c1c(Cl)ccc(F)c1Cl (stereo not drawn) [II-202, (6-{5-Amino-6-[1-(2,6-dichloro-3-fluoro-phenyl)-ethoxy]-pyrazin-2-yl}-pyridin-3-yl)-(4-methyl-piperazin-1-yl)-methanone] | 150
33 | CC(Oc1nc(-c2cc(C(=O)N3CCN(C)CC3)ccn2)cnc1N)c1c(Cl)ccc(F)c1Cl (stereo not drawn) [II-203, (2-{5-Amino-6-[1-(2,6-dichloro-3-fluoro-phenyl)-ethoxy]-pyrazin-2-yl}-pyridin-4-yl)-(4-methyl-piperazin-1-yl)-methanone] | 180
